# Source: EP0049683A2, “Imidazo-rifamycines, process for their preparation, pharmaceutical preparations containing them and their use” (CIBA-GEIGY AG, priority 1980, dated 1982)
# Columns and labels:
# Assay type in all cases: cell-based
# Escherichia coli 205 = assay: Agar dilution MIC in DST agar (Ericsson and Sherris); conditions: for MIC: Escherichia coli, 205, in vitro, read-out: MIC Esch. 205; for MIC Esch. 205: in vitro
# Method in brief: (§1)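 Read-out: minimal growth-inhibiting concentration (MIC), µg/ml. Compounds tested in vitro by agar dilution; endpoint is lowest level that still prevents visible growth.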
# Proteus morganii 1518 = assay: as above; conditions: for MIC: Morganella morganii, 1518, in vitro, read-out: MIC Prot. 1518; for MIC Prot. 1518: in vitro
# Method in brief: as §1
# [1] = test system: Pseudomonas aeruginosa K 799/61; assay: as above; conditions: for MIC: Pseudomonas aeruginosa, K799/61, read-out: MIC Pseu. 799; for MIC Pseu. 799: in vitro, agar dilution, DST agar
# Method in brief: as §1
# [2] = test system: Salmonella Typhimurium 277; assay: as above; conditions: in vitro; for MIC: Salmonella enterica, TYPHIMURIUM, read-out: MIC Salm. 277
# Method in brief: as §1
# Proteus morganii 2359 = assay: as above; conditions: for MIC: Morganella morganii, 2359, in vitro, read-out: MIC Prot. 2359; for MIC Prot. 2359: in vitro
# Method in brief: as §1
# [3] = test system: Staphylococcus aureus 2999; assay: as above; conditions: for MIC: Staphylococcus aureus, 2999, in vitro, read-out: MIC Staph. 2999; for MIC Staph. 2999: in vitro
# Method in brief: as §1
# [4] = test system: Staphylococcus aureus 10B; assay: as above; conditions: in vitro; for MIC: Staphylococcus aureus, 10B, read-out: MIC Staph. 10B
# Method in brief: as §1
# Escherichia coli 2018 = assay: as above; conditions: for MIC: Escherichia coli, 2018, in vitro, read-out: MIC Esch. 2018; for MIC Esch. 2018: in vitro
# Method in brief: as §1
# [5] = test system: Mycobacterium tuberculosis; assay: as above; conditions: in vitro; for MIC: Mycobacterium tuberculosis, read-out: MIC Myc. tub.
# [6] = test system: Enterobacteriaceae, z.B. Escherichia coli, Pseudomonas aeruginosa und Proteus morganii; assay: In vitro antibacterial activity against gram-negative rods; conditions: within the stated concentration range, 1 bis 64 y/ml
# Description: (§2) Die neuen erfindungsgemässen Verbindungen der Formel I zeichnen sich vor allem durch ihre wertvollen pharmakologischen Eigenschaften aus: so besitzen sie gemäss den Resultaten in vitro antibiotische, insbesondere antibakterielle Eigenschaften, wie z.B. einerseits gegen grammpositive Kokken, wie Staphylococcus aureus, (im getesteten Konzentrationsbereich 0,005 bis 128 y/ml),andererseits gegen grammnegative Stäbchenbakterien, wie Enterobacteriaceae, z.B. Escherichia coli, Pseudomonas aeruginosa und Proteus morganii (im getesteten Konzentrationsbereich von 1 bis 64 y/ml), sowie gegen Mycobacterium tuberculosis (im getesteten Konzentrationsbereich von 0,48 bis 1,9 y/ml). […] (Für die Testresultate siehe auch Tabelle -1.)
# (§3) Auch die neuen erfindungsgemässen Verbindungen der Formeln V und VI zeichnen sich durch analoge wertvolle pharmakologische Eigenschaften aus, d.h. sie besitzen gemäss den Resultaten in vitro antibiotische, insbesondere antibakterielle Eigenschaften, die sich bezüglich des Anwendungsbereichs sowie der getesteten effektiven Konzentrationen den Verbindungen der Formel I praktisch gleichen. […] (Für die Testresultate siehe auch Tabelle 2.)
# Staphylococcus aureus = assay: In vitro antibacterial activity against gram-positive cocci; conditions: at (at or below) the lowest limit of the tested concentration range, 0,005 y/ml
# Description: as §2, §3
Compound,MIC (Escherichia coli 205) [µg/mL],MIC (Proteus morganii 1518) [µg/mL],MIC [1] [µg/mL],MIC [2] [µg/mL],MIC (Proteus morganii 2359) [µg/mL],MIC [3] [µg/mL],MIC [4] [µg/mL],MIC (Escherichia coli 2018) [µg/mL],MIC [5] [µg/mL],Hemmung der Enterobacterien [6],Hemmwirkung auf Staphylococcus aureus (Staphylococcus aureus),MIC Esch. 205 (Escherichia coli 205) [µg/mL],MIC Prot. 1518 (Proteus morganii 1518) [µg/mL],MIC Pseu. 799 [1] [µg/mL],MIC Salm. 277 [2] [µg/mL],MIC Prot. 2359 (Proteus morganii 2359) [µg/mL],MIC Staph. 2999 [3] [µg/mL],MIC Staph. 10B [4] [µg/mL],MIC Esch. 2018 (Escherichia coli 2018) [µg/mL],MIC Myc. tub. [5] [µg/mL]
"COC1C=COC2(C)Oc3c(C)c(O)c4c(O)c(c5nc(N6CCN(C)CC6)[nH]c5c4c3C2=O)NC(=O)C(C)=CC=CC(C)C(O)C(C)C(O)C(C)C(OC(C)=O)C1C (stereo not drawn) [Verbindung 3, 4-(4-Methylpiperazinyl)-imidazolo[4,5-c]rifamycin SV]",16,16,4,32,16,0.01,0.01,16,0.97,wirksam hemmen,deutliche Hemmwirkung,,,,,,,,,
3-(4-Phenylpiperazinyl)methylenamino-Rifamycin S [Verbindung 91],,,,,,,,,,wirksam hemmen,deutliche Hemmwirkung,,,,,,,,,
"4-Pyrrolidinyl-imidazolo[4,5-c]rifamycin SV [Verbindung 19]",,,,,,,,,,wirksam hemmen,deutliche Hemmwirkung,2,4,8,8,4,0.005,0.005,4,0.48
"COC1C=COC2(C)Oc3c(C)c(O)c4c(O)c(c5nc(N(C)C)[nH]c5c4c3C2=O)NC(=O)C(C)=CC=CC(C)C(O)C(C)C(O)C(C)C(OC(C)=O)C1C (stereo not drawn) [Verbindung 1, 4-Dimethylamino-imidazolo[4,5-c]rifamycin SV]",8,4,2,16,8,0.005,0.005,4,0.97,wirksam hemmen,deutliche Hemmwirkung,,,,,,,,,
3-(4-Methylpiperazinyl)-methylenamino-Rifamycin S [Verbindung 88],,,,,,,,,,wirksam hemmen,deutliche Hemmwirkung,,,,,,,,,
"4-(1-Perhydroazocinyl)-imidazolo[4,5-c]rifamycin SV [Verbindung 28]",,,,,,,,,,,,4,2,8,16,2,0.005,0.005,4,0.97
"CCN(CC)CCN(CC)c1nc2c([nH]1)c1c(O)c3c(O)c(C)c4c(c32)C(=O)[C@@](C)(O/C=C/[C@H](OC)[C@@H](C)[C@@H](OC(C)=O)[C@H](C)[C@H](O)[C@H](C)[C@@H](O)[C@@H](C)/C=C/C=C(/C)C(=O)N1)O4 [Verbindung 18, 4-[N-Ethyl-N-(2-diethylaminoethyl)-amino]-imidazolo-[4,5-c]rifamycin SV]",2,4,8,16,2,0.005,0.005,4,0.48,,,,,,,,,,,
"COC1C=COC2(C)Oc3c(C)c(O)c4c(O)c(c5nc(N6CCN(CC(C)C)CC6)[nH]c5c4c3C2=O)NC(=O)C(C)=CC=CC(C)C(O)C(C)C(O)C(C)C(OC(C)=O)C1C (stereo not drawn) [Verbindung 4, 4-(4-Isobutylpiperazinyl)-imidazolo[4,5-c]rifamycin SV]",4,4,8,8,4,0.005,0.005,4,0.97,wirksam hemmen,deutliche Hemmwirkung,,,,,,,,,
